According to publication PMC5324105 (2017):

Key:
[1] = tested on: 12Rd-2 (RNA, aptamer) GGGACACAAUGGACGGCAGAUCUGAGAGGGGAAGACCCUUUGUUAUUAACGAACUUGCGGUAUGAUAACGGCCGACAUGAGAG; assay: phosphorescence titration; details: 100 mM NaCl, 5 mM MgCl2; 20 mM HEPES pH 7.0; 1 μM compound, RNA 1 to 10 μM
[2] = tested on: Δ 25@3' (RNA, aptamer) GGGACACAAUGGACGAUCAUAUAACGAUAGCACUGGCGUAGGGAGACUACGUGUCCGU; assay: phosphorescence titration; details: 100 mM NaCl, 5 mM MgCl2; 20 mM HEPES pH 7.0; 1 μM compound, RNA 1 to 10 μM
[3] = tested on: Δ 15@3' (RNA, aptamer) GGGACACAAUGGACGAUCAUAUAACGAUAGCACUGGCGUAGGGAGACUACGUGUCCGUGUGUACCUAA; assay: phosphorescence titration; details: 100 mM NaCl, 5 mM MgCl2; 20 mM HEPES pH 7.0; 1 μM compound, RNA 1 to 10 μM
[4] = tested on: Ru(bpy)3^2+ aptamer (Δ 25@3', Δ 5@5'; 53 nt) (RNA, aptamer) GGGAUGGACGAUCAUAUAACGAUAGCACUGGCGUAGGGAGACUACGUGUCCGU; assay: phosphorescence titration; details: 100 mM NaCl, 5 mM MgCl2; 20 mM HEPES pH 7.0; 1 μM compound, RNA 1 to 10 μM
[5] = tested on: Δ Hairpin loop2 (RNA, aptamer) GGGAUGGACGAUCAUAUAACGAUAGCACUGGUGUCCGU; assay: phosphorescence titration; details: 100 mM NaCl, 5 mM MgCl2; 20 mM HEPES pH 7.0; 1 μM compound, RNA up to 10 μM
[6] = tested on: Δ Hairpin loop1 (RNA, aptamer) GGGAUGGACGAUAGCACUGGCGUAGGGAGACUACGUGUCCGU; assay: phosphorescence titration; details: 100 mM NaCl, 5 mM MgCl2; 20 mM HEPES pH 7.0; 1 μM compound, RNA up to 10 μM
[7] = tested on: Δ Loop2 (RNA, aptamer) GGGAUGGACGAUCAUAUAACGAUAGCGUAGGGAGACUACGUGUCCGU; assay: phosphorescence titration; details: 100 mM NaCl, 5 mM MgCl2; 20 mM HEPES pH 7.0; 1 μM compound, RNA up to 10 μM
[8] = tested on: Ru(bpy)3^2+ aptamer (Δ 25@3', Δ 5@5'; 53 nt) (RNA, aptamer) GGGAUGGACGAUCAUAUAACGAUAGCACUGGCGUAGGGAGACUACGUGUCCGU; assay: ITC; details: Na+ (phosphate-buffered saline, concentration not stated); PBS (Takara T900); 5 μM aptamer in cell, 50 μM compound in syringe
[9] = tested on: 12Rd-1 (RNA, aptamer) GGGACACAAUGGACGGUACGUAUUGCGUGGGACCCCGCGCAAUGAACUGGCCGAGGGAGACUCGGUAACGGCCGACAUGAGAG; assay: phosphorescence titration; details: 100 mM NaCl, 5 mM MgCl2; 20 mM HEPES pH 7.0; 1 μM compound, RNA 1 to 10 μM
[10] = tested on: 12Rd-3 (RNA, aptamer) GGGACACAAUGGACGUGGGGCUACAGACCAUCCGUUCUAUCCCGAGCACCGGGCCAAUCUCAAGUUAACGGCCGACAUGAGAG; assay: phosphorescence titration; details: 100 mM NaCl, 5 mM MgCl2; 20 mM HEPES pH 7.0; 1 μM compound, RNA up to 10 μM
[11] = tested on: 12Rd-5 (RNA, aptamer) GGGACACAAUGGACGAUCAUAUAACGAUAGCACUGGCGUAGGGAGACUACGUGUCCGUGUGUACCUAACGGCCGACAUGAGAG; assay: phosphorescence titration; details: 100 mM NaCl, 5 mM MgCl2; 20 mM HEPES pH 7.0; 1 μM compound, RNA 1 to 10 μM
[12] = tested on: 2'-F aptamer (RNA, aptamer, 2'-F RNA (DuraScribe T7 transcription; modified positions not stated)) GGGAUGGACGAUCAUAUAACGAUAGCACUGGCGUAGGGAGACUACGUGUCCGU; assay: phosphorescence titration; details: 100 mM NaCl, 5 mM MgCl2; 20 mM HEPES pH 7.0; 1 μM compound, RNA up to 10 μM
[13] = tested on: Δ 31@3 (RNA, aptamer) GGGACACAAUGGACGAUCAUAUAACGAUAGCACUGGCGUAGGGAGACUACGU; assay: phosphorescence titration; details: 100 mM NaCl, 5 mM MgCl2; 20 mM HEPES pH 7.0; 1 μM compound, RNA up to 10 μM
[14] = tested on: 12Rd-4 (RNA, aptamer) GGGACACAAUGGACGGGCACAAGGUCCCACCAUCUCAGACGAGAAAGGAUACGCAGAUCGGCGAAUAACGGCCGACAUGAGAG; assay: phosphorescence titration; details: 100 mM NaCl, 5 mM MgCl2; 20 mM HEPES pH 7.0; 1 μM compound, RNA up to 10 μM

[Ru+2].c1ccc(-c2ccccn2)nc1.c1ccc(-c2ccccn2)nc1.c1ccc(-c2ccccn2)nc1
Kd [1]: 1000 nM | binding [2]: yes | binding [3]: yes | binding [4]: yes | binding [5]: no | binding [6]: no | binding [7]: no | Kd [8]: 65 nM | binding [8]: no | Kd [9]: 1600 nM | binding [10]: no | Kd [11]: 118 ± 90 nM | binding [12]: no | binding [13]: no | binding [14]: no
